Assay results taken from patent US12655437B2, “Compositions and methods for modulating the gastrointestinal tract using bile salt hydrolases” (North Carolina State University, priority 2019, dated 2026).

Columns and labels:
L. acidophilus ΔbshAB = test: Growth of L. acidophilus bsh mutants in MRS media supplemented with bile acids; format: cell-based, Lactobacillus acidophilus
Procedure: FIG. 12: L. acidophilus bshA and bshB contribute to bile acid detoxification in a substrate dependent manner. Growth of BSH mutants in the presence of bile acids. To evaluate the role of BSH activity during L. acidophilus growth, single and double BSH mutants were grown in MRS media supplemented with bile acids and growth was measured by OD600 nm.
FIGS. 13A-13G: L. acidophilus bshA and bshB contribute to bile acid detoxification in a substrate and concentration dependent manner.
FIGS. 12-14 include representative results of experiments conducted to evaluate the role of BSH activity during L. acidophilus growth. […] The L. acidophilus strains with deletion in bshA, bshB, and bshAB were tested in plate assays and growth curves were determined. The ΔbshA, ΔbshB, and ΔbshAB L. acidophilus and L. gasseri strains were grown in the presence of conjugated bile acids to test BSH contributions to bile acid detoxification. FIG. 12 provides growth curves of L. acidophilus mutants grown in a variety of bile acid concentrations. As shown, single and double BSH mutants (ΔbshA and ΔbshB) were grown in MRS media supplemented with bile acids.
(§1) Error bars represent s.d. from n=4 independent experiments. Dashed lined denotes the approximate starting CFUs/mL at 0 h. Exogenous recombinant LaBSHa and LaBSHb (LaBSHab) or LgBSHa and LgBSHb (LgBSHab) were supplemented to cultures in equimolar amounts to L. acidophilus ΔbshAB or L. gasseri ΔbshAB growths to functionally complement ΔbshAB strains.

L. gasseri ΔbshAB = test: Growth of L. gasseri bsh mutants in MRS media supplemented with bile acids; format: cell-based, Lactobacillus gasseri
Procedure: as §1, with “bars represent standard deviation (s.d.) from n=4” for “bars represent s.d. from n=4”, “amounts to (A) L. acidophilus” for “amounts to L. acidophilus”, “ΔbshAB or (B) L. gasseri” for “ΔbshAB or L. gasseri”
The L. acidophilus strains with deletion in bshA, bshB, and bshAB were tested in plate assays and growth curves were determined. The ΔbshA, ΔbshB, and ΔbshAB L. acidophilus and L. gasseri strains were grown in the presence of conjugated bile acids to test BSH contributions to bile acid detoxification. FIG. 12 provides growth curves of L. acidophilus mutants grown in a variety of bile acid concentrations.

C. difficile [1] = test: Growth of C. difficile anaerobically in BHIS medium supplemented with bile acids and purified BSH; format: cell-based, Clostridioides difficile; details: BHIS media supplemented with the bile acid alone
Procedure: FIGS. 22A-22C: BSH specificity can leveraged to inhibit Clostridioides difficile in a conjugated bile acid substrate-dependent manner. (A) Recombinantly expressed and purified L. johnsonii BSHs were assayed for deconjugation with GCDCA and TCDCA. Specific activities for each BSH were determined by quantifying the rate of amino acid release by Ninhydrin assay. (B, C) Growth of C. difficile anaerobically in BHIS medium supplemented with GCDCA, TCDCA, or CDCA in combination with purified LjoBSHa or LjoBSHc.
As shown in FIGS. 9-11, recombinant BHSs were overexpressed and purified to homogeneity, and experiments were conducted to evaluate their activity. Two recombinant BSH enzymes were used for this assay. […] TCDCA was chosen as a conjugated bile acid to be used in the growth assays due to C. difficile's sensitivity to the CDCA that is released from BSH activity. […] A high dosage of LjoBSHa is needed to overcome its catalytic deficiency (FIG. 9).
TCDCA was chosen as a conjugated bile acid to be used in this growth (FIGS. 22B-22C) assay due to C. difficile's sensitivity to the CDCA that is released from BSH activity. […] A high dosage of LjoBSHa is needed to overcome its catalytic deficiency.

C. difficile [2] = details: cited from earlier work

Structure (SMILES)	growth of L. acidophilus ΔbshAB (L. acidophilus ΔbshAB; 5 mM bile acid in MRS)	C. difficile growth (C. difficile [1])	growth of L. acidophilus ΔbshAB (L. acidophilus ΔbshAB; 2.5 mM bile acid in MRS)	further results
C[C@H](CCC(=O)NCC(=O)O)[C@H]1CC[C@H]2[C@@H]3[C@H](O)C[C@@H]4C[C@H](O)CC[C@]4(C)[C@H]3C[C@H](O)[C@]12C [GCA, glycocholate]	less inhibited	–	–	growth of L. gasseri ΔbshAB (L. gasseri ΔbshAB; 5 mM bile acid in MRS): significantly less inhibited
C[C@H](CCC(=O)NCCS(=O)(=O)O)[C@H]1CC[C@H]2[C@@H]3[C@H](O)C[C@@H]4C[C@H](O)CC[C@]4(C)[C@H]3CC[C@]12C [TCDCA, taurochendeoxycholate]	less inhibited	no inhibition of growth	–	effect on C. difficile (C. difficile [2]; bile acid alone): does not affect C. difficile
C[C@H](CCC(=O)NCCS(=O)(=O)O)[C@H]1CC[C@H]2[C@@H]3CC[C@@H]4C[C@H](O)CC[C@]4(C)[C@H]3C[C@H](O)[C@]12C [TDCA, taurodeoxycholate]	significantly inhibited	–	–	–
C[C@H](CCC(=O)NCC(=O)O)[C@H]1CC[C@H]2[C@@H]3[C@H](O)C[C@@H]4C[C@H](O)CC[C@]4(C)[C@H]3CC[C@]12C [GCDCA, glycochendeoxycholate]	–	–	significantly inhibited	growth of L. gasseri ΔbshAB (L. gasseri ΔbshAB; 2.5 mM bile acid in MRS): significantly inhibited
C[C@H](CCC(=O)NCC(=O)O)[C@H]1CC[C@H]2[C@@H]3CC[C@@H]4C[C@H](O)CC[C@]4(C)[C@H]3C[C@H](O)[C@]12C [GDCA, glycodeoxycholate]	–	–	significantly inhibited	growth of L. gasseri ΔbshAB (L. gasseri ΔbshAB; 1.25 mM bile acid in MRS): significantly inhibited
C[C@H](CCC(=O)O)[C@H]1CC[C@H]2[C@@H]3[C@H](O)C[C@@H]4C[C@H](O)CC[C@]4(C)[C@H]3CC[C@]12C [CDCA, chendeoxycholate]	–	complete inhibition	–	C. difficile spore germination (C. difficile [2]): inhibits; C. difficile vegetative cells (C. difficile [2]): kills
